Molecular target: P. falciparum apicoplast DNA polymerase (Pf-apPOL) (Plasmodium falciparum, UniProt Q8ILY1)
Experiment: Fluorescence-based high-throughput DNA polymerase assay (molecular beacon), primary screen and dose-response
Assay type: biochemical
Conditions: for DNA Pol: unit not given, 90 min, 10 µM; for % inhibition apPOL 180' 2.5 / % inhibition apPOL 180' 5 / % inhibition apPOL 180' 10 / % inhibition apPOL 180' 20 / % inhibition apPOL 180' 40 / % inhibition apPOL 180' 80: read at 180'
Outline: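 Single-point screening used 10 µM compound with 20 nM polymerase, 20 nM hairpin substrate and 6 µM dNTPs for 90 min at 25 °C. Confirmatory titrations (2.5–80 µM) followed fluorescence at three times, and IC50 was derived from a fit including a cooperativity term n.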

P. falciparum apicoplast DNA polymerase (Pf-apPOL), sequence (Q8ILY1 entry or part of it): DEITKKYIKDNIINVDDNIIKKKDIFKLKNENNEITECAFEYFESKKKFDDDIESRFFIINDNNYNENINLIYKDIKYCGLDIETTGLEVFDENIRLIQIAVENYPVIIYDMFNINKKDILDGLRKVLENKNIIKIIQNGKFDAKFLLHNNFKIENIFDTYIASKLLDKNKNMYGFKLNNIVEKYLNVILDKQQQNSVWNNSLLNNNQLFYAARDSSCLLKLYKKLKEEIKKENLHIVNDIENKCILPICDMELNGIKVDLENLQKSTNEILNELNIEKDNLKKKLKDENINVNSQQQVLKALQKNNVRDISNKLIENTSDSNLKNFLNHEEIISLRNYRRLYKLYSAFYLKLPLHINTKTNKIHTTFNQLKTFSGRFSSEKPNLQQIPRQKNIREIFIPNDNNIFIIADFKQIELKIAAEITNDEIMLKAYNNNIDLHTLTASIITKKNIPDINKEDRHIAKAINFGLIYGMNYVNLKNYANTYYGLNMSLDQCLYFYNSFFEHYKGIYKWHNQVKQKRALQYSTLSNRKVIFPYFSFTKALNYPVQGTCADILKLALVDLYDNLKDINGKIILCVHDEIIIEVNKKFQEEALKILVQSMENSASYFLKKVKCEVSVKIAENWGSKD

## Cc1ccc(N2CCC(NC(=O)Cc3cccs3)C2=O)cc1C (stereo not drawn) [Molecule 57, O=C(NC1CCN(C1=O)c1ccc(c(c1)C)C)Cc1cccs1]
186 hits, DNA Pol (screen value)
  DNA Pol: 30
'DNA Pol' (screen value)
  DNA Pol: 30
DRC-1, read at 10', concentration 2.5
  % inhibition Apo pol 10' 2.5: -4.081%
DRC-1, read at 10', concentration 5
  % inhibition Apo pol 10' 5: 5.106%
DRC-1, read at 10', concentration 10
  % inhibition Apo pol 10' 10: 22.9359%
DRC-1, read at 10', concentration 20
  % inhibition Apo pol 10' 20: 41.5954%
DRC-1, read at 10', concentration 40
  % inhibition Apo pol 10' 40: 44.443%
DRC-1, read at 10', concentration 80
  % inhibition Apo pol 10' 80: 44.3208%
DRC-1, read at 90', concentration 2.5
  % inhibition Apol 90' 2.5: -2.123%
DRC-1, read at 90', concentration 5
  % inhibition Apol 90' 5: 4.8282%
DRC-1, read at 90', concentration 10
  % inhibition Apol 90' 10: 19.3171%
DRC-1, read at 90', concentration 20
  % inhibition Apol 90' 20: 42.7079%
DRC-1, read at 90', concentration 40
  % inhibition Apol 90' 40: 53.5477%
DRC-1, read at 90', concentration 80
  % inhibition Apol 90' 80: 61.4172%
DRC-1, concentration 2.5
  % inhibition apPOL 180' 2.5: -1.073%
DRC-1, concentration 5
  % inhibition apPOL 180' 5: 1.4295%
DRC-1, concentration 10
  % inhibition apPOL 180' 10: 11.4485%
DRC-1, concentration 20
  % inhibition apPOL 180' 20: 30.1368%
DRC-1, concentration 40
  % inhibition apPOL 180' 40: 47.6529%
DRC-1, concentration 80
  % inhibition apPOL 180' 80: 62.3607%
DRC-2, concentration 10
  % inhibition Apo pol 5': 24%
  % inhibition apPOL 180' 10: 22%
DRC-2, concentration 20
  % inhibition Apo pol 5': 24%
  % inhibition ApPOL 90': 47%
  % inhibition apPOL 180' 20: 43%
DRC-2, concentration 40
  % inhibition ApPOL 90': 47%
  % inhibition apPOL 180' 40: 49%
DRC-2, read at 5', concentration 2.5
  % inhibition Apo pol 5' 2.5: -1.72%
DRC-2, read at 5', concentration 5
  % inhibition Apo pol 5' 5: 2.54%
DRC-2, read at 5', concentration 10
  % inhibition Apo pol 5' 10: 24%
DRC-2, read at 5', concentration 20
  % inhibition Apo pol 5' 20: 24%
DRC-2, read at 5', concentration 40
  % inhibition Apo pol 5' 40: 6.44%
DRC-2, read at 5', concentration 80
  % inhibition Apo pol 5' 80: -4.26%
DRC-2, read at 40', concentration 2.5
  % inhibition Apol 40' 2.5: -1.82%
DRC-2, read at 40', concentration 5
  % inhibition Apol 40' 5: 5.58%
DRC-2, read at 40', concentration 10
  % inhibition Apol 40' 10: 32%
DRC-2, read at 40', concentration 20
  % inhibition Apol 40' 20: 44%
DRC-2, read at 40', concentration 40
  % inhibition Apol 40' 40: 39%
DRC-2, read at 40', concentration 80
  % inhibition Apol 40' 80: 37%
DRC-2, read at 90', concentration 2.5
  % inhibition ApPOL 90' 2.5: -2.11%
DRC-2, read at 90', concentration 5
  % inhibition ApPOL 90' 5: 5%
DRC-2, read at 90', concentration 10
  % inhibition ApPOL 90' 10: 30%
DRC-2, read at 90', concentration 20
  % inhibition ApPOL 90' 20: 47%
DRC-2, read at 90', concentration 40
  % inhibition ApPOL 90' 40: 47%
DRC-2, read at 90', concentration 80
  % inhibition ApPOL 90' 80: 48%
DRC-2, concentration 2.5
  % inhibition apPOL 180' 2.5: -1.11%
DRC-2, concentration 5
  % inhibition apPOL 180' 5: 3.34%
DRC-2, concentration 80
  % inhibition apPOL 180' 80: 55%

From article PMC9090415, “Discovery of small molecule inhibitors of Plasmodium falciparum apicoplast DNA polymerase” (Journal of Enzyme Inhibition and Medicinal Chemistry, 2022)
